In PubChem BioAssay AID2060890 (Molecular Pharmacology Branch, DTP, NCI, 2025):
“And” between values parts separate entries of the source, which are not always exact repeats. Equal values may be shown once.

Test system: LG0703-F948-PDC complex spheroid viability
Assay: Anticancer human tumor LG0703-F948-PDC patient-derived lung adenocarcinoma cell line growth inhibition [RAS]
Conditions: for viability, T/C: stronger effect = lower value
Outline: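 Tumour cells grown as complex spheroids with HUVEC endothelial cells and mesenchymal stem cells, treated with RAS pathway inhibitor combinations. Each agent spans half-log steps from near clinical Cmax, or 10 microM where Cmax is unknown.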
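Also: spheroids exposed to agents for 7 days.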
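For viability, T/C in this document: 100% = DMSO vehicle wells.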

CC1(C)CCC(Nc2ncc(C(F)(F)F)c(-c3c[nH]c4c(P(C)(C)=O)c(C#N)ccc34)n2)CN1 (stereo unspecified) + C=CC(=O)N1CCN(c2nc(OCC3CCCN3C)nc3c(F)c(-c4nc(N)cc(C)c4C(F)(F)F)c(Cl)cc23)C(C)C1
IC50 (curve of first compound, second compound 0.00316 µM): > 0.3 µM
IC50 (curve of first compound, second compound 0.01 µM): > 0.3 µM
IC50 (curve of first compound, second compound 0.0316 µM): > 0.3 µM
IC50 (curve of first compound, second compound 0.1 µM): > 0.3 µM
IC50 (curve of first compound, second compound 0.316 µM): > 0.3 µM
IC50 (curve of first compound, second compound 1 µM): > 0.3 µM
viability, T/C (second compound 0.00316 µM, first compound 0.000949 µM): 84.1%
viability, T/C (second compound 0.00316 µM, first compound 0.003 µM): 76.8%
viability, T/C (second compound 0.00316 µM, first compound 0.00949 µM): 63.5%
viability, T/C (second compound 0.00316 µM, first compound 0.03 µM): 62.8%
viability, T/C (second compound 0.00316 µM, first compound 0.0949 µM): 57%
viability, T/C (second compound 0.00316 µM, first compound 0.3 µM): 57.3%
viability, T/C (second compound 0.01 µM, first compound 0.000949 µM): 88.5%
viability, T/C (second compound 0.01 µM, first compound 0.003 µM): 78.8%
viability, T/C (second compound 0.01 µM, first compound 0.00949 µM): 67%
viability, T/C (second compound 0.01 µM, first compound 0.03 µM): 52.9%
viability, T/C (second compound 0.01 µM, first compound 0.0949 µM): 58.7%
viability, T/C (second compound 0.01 µM, first compound 0.3 µM): 62%
viability, T/C (second compound 0.0316 µM, first compound 0.000949 µM): 94%
viability, T/C (second compound 0.0316 µM, first compound 0.003 µM): 71.4%
viability, T/C (second compound 0.0316 µM, first compound 0.00949 µM): 68.8%
viability, T/C (second compound 0.0316 µM, first compound 0.03 µM): 53.2%
viability, T/C (second compound 0.0316 µM, first compound 0.0949 µM): 54.7%
viability, T/C (second compound 0.0316 µM, first compound 0.3 µM): 62.1%
viability, T/C (second compound 0.1 µM, first compound 0.000949 µM): 82.3%
viability, T/C (second compound 0.1 µM, first compound 0.003 µM): 77.1%
viability, T/C (second compound 0.1 µM, first compound 0.00949 µM): 55.9%
viability, T/C (second compound 0.1 µM, first compound 0.03 µM): 52.9%
viability, T/C (second compound 0.1 µM, first compound 0.0949 µM): 58.4%
viability, T/C (second compound 0.1 µM, first compound 0.3 µM): 65.3%
viability, T/C (second compound 0.316 µM, first compound 0.000949 µM): 98.4%
viability, T/C (second compound 0.316 µM, first compound 0.003 µM): 78.5%
viability, T/C (second compound 0.316 µM, first compound 0.00949 µM): 62.2%
viability, T/C (second compound 0.316 µM, first compound 0.03 µM): 62%
viability, T/C (second compound 0.316 µM, first compound 0.0949 µM): 58.8%
viability, T/C (second compound 0.316 µM, first compound 0.3 µM): 67.3%
viability, T/C (second compound 1 µM, first compound 0.000949 µM): 84.8%
viability, T/C (second compound 1 µM, first compound 0.003 µM): 77.8%
viability, T/C (second compound 1 µM, first compound 0.00949 µM): 64.5%
viability, T/C (second compound 1 µM, first compound 0.03 µM): 57.4%
viability, T/C (second compound 1 µM, first compound 0.0949 µM): 66.1%
viability, T/C (second compound 1 µM, first compound 0.3 µM): 59.9%

CCN1CCN(Cc2ccc(Nc3ncc(F)c(-c4cc(F)c5nc(C)n(C(C)C)c5c4)n3)nc2)CC1
viability, T/C (compound 0.00316 µM): 110% and 103% (2×) and 94.4%
viability, T/C (compound 0.01 µM): 91.3% [middle of 4 runs]
viability, T/C (compound 0.0316 µM): 84.7% [middle of 4 runs]
viability, T/C (compound 0.1 µM): 85.1% [middle of 4 runs]
viability, T/C (compound 0.316 µM): 92.1% [middle of 4 runs]
viability, T/C (compound 1 µM): 83.4% [middle of 4 runs]
IC50 (curve of compound): > 1 µM

NC1c2ccccc2OC12CCN(c1cnc3c(N4CCCc5ncccc54)n[nH]c3n1)CC2 (stereo unspecified) + CCn1c(-c2cc(N3CCN(C)CC3)cnc2C(C)OC)c2c3cc(ccc31)-c1csc(n1)CC(NC(=O)C1CC1C)C(=O)N1CCCC(N1)C(=O)OCC(C)(C)C2
IC50 (curve of first compound, second compound 0.000949 µM): < 0.0316 µM
IC50 (curve of first compound, second compound 0.003 µM): < 0.0316 µM
IC50 (curve of first compound, second compound 0.00949 µM): < 0.0316 µM
IC50 (curve of first compound, second compound 0.03 µM): < 0.0316 µM
IC50 (curve of first compound, second compound 0.0949 µM): < 0.0316 µM
IC50 (curve of first compound, second compound 0.3 µM): < 0.0316 µM
viability, T/C (second compound 0.000949 µM, first compound 0.0316 µM): 30.3%
viability, T/C (second compound 0.000949 µM, first compound 0.1 µM): 19.3%
viability, T/C (second compound 0.000949 µM, first compound 0.316 µM): 11%
viability, T/C (second compound 0.000949 µM, first compound 1 µM): 8.58%
viability, T/C (second compound 0.000949 µM, first compound 3.16 µM): 5.25%
viability, T/C (second compound 0.000949 µM, first compound 10 µM): 1.78%
viability, T/C (second compound 0.003 µM, first compound 0.0316 µM): 20.3%
viability, T/C (second compound 0.003 µM, first compound 0.1 µM): 11.8%
viability, T/C (second compound 0.003 µM, first compound 0.316 µM): 9.37%
viability, T/C (second compound 0.003 µM, first compound 1 µM): 8.15%
viability, T/C (second compound 0.003 µM, first compound 3.16 µM): 3.56%
viability, T/C (second compound 0.003 µM, first compound 10 µM): 1.82%
viability, T/C (second compound 0.00949 µM, first compound 0.0316 µM): 14.5%
viability, T/C (second compound 0.00949 µM, first compound 0.1 µM): 7.88%
viability, T/C (second compound 0.00949 µM, first compound 0.316 µM): 5.28%
viability, T/C (second compound 0.00949 µM, first compound 1 µM): 4.34%
viability, T/C (second compound 0.00949 µM, first compound 3.16 µM): 2.68%
viability, T/C (second compound 0.00949 µM, first compound 10 µM): 2.25%
viability, T/C (second compound 0.03 µM, first compound 0.0316 µM): 8.5%
viability, T/C (second compound 0.03 µM, first compound 0.1 µM): 6.42%
viability, T/C (second compound 0.03 µM, first compound 0.316 µM): 4.71%
viability, T/C (second compound 0.03 µM, first compound 1 µM): 2.66%
viability, T/C (second compound 0.03 µM, first compound 3.16 µM): 2.29%
viability, T/C (second compound 0.03 µM, first compound 10 µM): 2.1%
viability, T/C (second compound 0.0949 µM, first compound 0.0316 µM): 6.81%
viability, T/C (second compound 0.0949 µM, first compound 0.1 µM): 4.57%
viability, T/C (second compound 0.0949 µM, first compound 0.316 µM): 4.01%
viability, T/C (second compound 0.0949 µM, first compound 1 µM): 2.85%
viability, T/C (second compound 0.0949 µM, first compound 3.16 µM): 3.37%
viability, T/C (second compound 0.0949 µM, first compound 10 µM): 1.78%
viability, T/C (second compound 0.3 µM, first compound 0.0316 µM): 3.46%
viability, T/C (second compound 0.3 µM, first compound 0.1 µM): 4.3%
viability, T/C (second compound 0.3 µM, first compound 0.316 µM): 3.62%
viability, T/C (second compound 0.3 µM, first compound 1 µM): 2.74%
viability, T/C (second compound 0.3 µM, first compound 3.16 µM): 1.58%
viability, T/C (second compound 0.3 µM, first compound 10 µM): 1.7%
